{
  "source": "patent US20200115667A1",
  "about": "“VASCULARIZED MICROFLUIDIC PLATFORMS” (BOARD OF REGENTS, THE UNIVERSITY OF TEXAS SYSTEM, priority 2017, published 2020)",
  "key": {"[1]": {"tested_on": "endothelial lumen of C3Asub28/TIME, MDA-MB-231/TIME, THLE-3/TIME microenvironments", "assay": "Vessel permeability of multi tissue-on-a-chip microenvironments", "format": "cell-based, human", "conditions": "TNFα treated TIME monoculture vs TIME monoculture, this study", "experimental": "Transport measurements of varying particle sizes in the multi tissue-on-a-chip microenvironment were conducted for two different scenarios: single microenvironment analysis and microenvironments connected in series to investigate the influence of their interactions and interdependent transport kinetics. When considering only a single microenvironment transport, particles were delivered through the vessel of the microenvironment of interest and transport through the vessel and into the surrounding ECM was measured subsequently and spatially. In these tests, 5 different platform configurations was used: acellular with no cells in the ECM and no cells in the vessel, TIME monoculture consisting only endothelial cells lining the vessel without cells in the ECM, and then vascularized microenvironments denoted as cells in the ECM/cells in the vessel: MDA-MB-231/TIME, C3Asub28/TIME, and THLE-3/TIME microenvironments. […]\nTherefore, endothelial porosity was determined using fluorescence microscopy images of mKate tagged endothelial cells. […] The effect of vessel and ECM porosities and particle size on transport were quantified using two methods, permeability coefficient and intensity profiles of the particles in the vessel and ECM. […] Obtained images were exported to Matlab to quantify intensity readings at each time step. For the first method, permeability coefficient was calculated using Equation 8"}, "[2]": {"tested_on": "TIME monoculture endothelium", "assay": "Porosity of vasculature (vessel confluence, confocal)", "format": "cell-based, human", "conditions": "20 ng/ml perfused 24 hours", "experimental": "After embedding cells in collagen and successfully preconditioning endothelialized channels for 72 hours to establish a confluent, aligned endothelium, the effect of different co-culture conditions on the vessel confluence was studied as shown in FIG. 20.\nTo create a fully functional aligned endothelium along each channel within each compartment, TIME cell suspension in media (10×10^6 cells/ml) was introduced in the channel and underwent flow preconditioning for 3 days. Within the first 36 hours, wall shear stress was maintained at 0.01 dyn/cm^2 and followed with a linear increase of wall shear stress to 0.1 dyn/cm^2 for 1 hour and maintained at this value for the next 36 hours. […] For positive control samples, 20 ng/ml Tumor Necrosis Factor Alpha (TNFα, RnD Systems, MN) was perfused at 0.1 dyn/cm^2 for 24 hours after the preconditioning protocol before transport studies. To provide flow into the microfluidic platform, 0.5″ long 22G stainless steel needles were inserted though PDMS ports and partially into the collagen microchannels. Autoclaved Tygon silicon tubing ( 1/16″ ID, Saint Global, France) was connected to the inlet needle and a bubble trap, which is connected to a syringe pump that controls the flow rate. […]\nTherefore, endothelial porosity was determined using fluorescence microscopy images of mKate tagged endothelial cells."}, "[3]": {"tested_on": "endothelial lumen of C3Asub28/TIME, MDA-MB-231/TIME, THLE-3/TIME microenvironments", "conditions": "reported by Zervantonakis et al.; cited from earlier work"}},
  "note": "Like-named read-outs stand apart in the source and are kept apart here.",
  "data": [
    {"substance": "Tumor Necrosis Factor Alpha [TNFα]", "values": [
      {"measurement": "fold change of permeability between Control − and Control +", "setting": "[1]", "value": "1.59±0.13"},
      {"measurement": "effect on vessel compared to Control −", "setting": "[2]", "value": "caused vessel permeabilization with significant pore openings"},
      {"measurement": "fold change of permeability between Control − and Control +", "setting": "[3]", "value": "1.79±0.27"}
    ]}
  ]
}
